From the kinase profiling compilation of Christmann-Franck et al. (2016)
Where “and” joins values, the source holds several entries; their conditions need not be identical. Identical values can stand only once.

Assays:
Experiment in all cases: radiometric filter-binding kinase assay, Kinase HotSpot
Conditions in all cases: compound 0.5 µM; ATP 10 µM
[1] = target: ABL1 (human) (UniProt P00519)
[2] = target: AXL (human) (UniProt P30530)
[3] = target: BLK (human) (UniProt P51451)
[4] = target: BRSK1 (human) (UniProt Q8TDC3)
[5] = target: CAMK1 (human) (UniProt Q14012)
[6] = target: CAMK1D (human) (UniProt Q8IU85)
[7] = target: CDC42BPB (human) (UniProt Q9Y5S2)
[8] = target: CDK4 CCND1 (human) (UniProt P24385+P11802)
[9] = target: CDK4 CCND3 (human) (UniProt P30281+P11802)
[10] = target: CDK5 CDK5R1 p35 (human) (UniProt Q00535+Q15078)
[11] = target: CDK9 CCNT1 (human) (UniProt P50750+O60563)
[12] = target: CLK1 (human) (UniProt P49759)
[13] = target: CLK3 (human) (UniProt P49761)
[14] = target: CSNK1A1 (human) (UniProt P48729)
[15] = target: DMPK (human) (UniProt Q09013)
[16] = target: DYRK3 (human) (UniProt O43781)
[17] = target: EPHB4 (human) (UniProt P54760)
[18] = target: FGFR3 (human) (UniProt P22607)
[19] = target: FRK (human) (UniProt P42685)
[20] = target: GRK5 (human) (UniProt P34947)
[21] = target: JAK3 JH1 JH2 (human) (UniProt P52333)
[22] = target: LCK (human) (UniProt P06239)
[23] = target: LIMK1 (human) (UniProt P53667)
[24] = target: LYN (human) (UniProt P07948)
[25] = target: MAP3K3 (human) (UniProt Q99759)
[26] = target: MARK2 (human) (UniProt Q7KZI7)
[27] = target: MUSK (human) (UniProt O15146)
[28] = target: PIM2 (human) (UniProt Q9P1W9)
[29] = target: PRKD3 (human) (UniProt O94806)
[30] = target: PRKG1 (human) (UniProt Q13976)
[31] = target: RIPK2 (human) (UniProt O43353)
[32] = target: ROCK2 (human) (UniProt O75116)
[33] = target: ROS1 (human) (UniProt P08922)
[34] = target: RPS6KB1 (human) (UniProt P23443)
[35] = target: RPS6KB2 (human) (UniProt Q9UBS0)
[36] = target: SGK2 (human) (UniProt Q9HBY8)
[37] = target: STK39 (human) (UniProt Q9UEW8)
[38] = target: TAOK1 (human) (UniProt Q7L7X3)
[39] = target: TGFBR2 (human) (UniProt P37173)
[40] = target: ULK2 (human) (UniProt Q8IYT8)
[41] = target: WNK2 (human) (UniProt Q9Y3S1)
[42] = target: YES1 (human) (UniProt P07947)

LYN (human), sequence (P07948 whole entry, looked up): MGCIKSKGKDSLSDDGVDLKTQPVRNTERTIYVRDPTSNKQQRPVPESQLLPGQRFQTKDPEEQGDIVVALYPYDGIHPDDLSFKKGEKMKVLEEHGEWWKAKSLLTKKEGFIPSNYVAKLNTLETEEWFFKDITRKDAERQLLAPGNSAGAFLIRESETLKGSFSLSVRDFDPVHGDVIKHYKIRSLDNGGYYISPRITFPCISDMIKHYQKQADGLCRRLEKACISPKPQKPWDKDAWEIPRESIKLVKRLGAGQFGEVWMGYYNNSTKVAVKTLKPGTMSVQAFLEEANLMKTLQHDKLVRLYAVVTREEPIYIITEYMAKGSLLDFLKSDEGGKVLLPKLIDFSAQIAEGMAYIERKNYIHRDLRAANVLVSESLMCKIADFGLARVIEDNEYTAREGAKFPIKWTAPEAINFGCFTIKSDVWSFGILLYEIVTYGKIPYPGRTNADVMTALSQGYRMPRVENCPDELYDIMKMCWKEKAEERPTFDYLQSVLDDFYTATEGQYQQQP
PRKG1 (human), sequence (Q13976 whole entry, looked up): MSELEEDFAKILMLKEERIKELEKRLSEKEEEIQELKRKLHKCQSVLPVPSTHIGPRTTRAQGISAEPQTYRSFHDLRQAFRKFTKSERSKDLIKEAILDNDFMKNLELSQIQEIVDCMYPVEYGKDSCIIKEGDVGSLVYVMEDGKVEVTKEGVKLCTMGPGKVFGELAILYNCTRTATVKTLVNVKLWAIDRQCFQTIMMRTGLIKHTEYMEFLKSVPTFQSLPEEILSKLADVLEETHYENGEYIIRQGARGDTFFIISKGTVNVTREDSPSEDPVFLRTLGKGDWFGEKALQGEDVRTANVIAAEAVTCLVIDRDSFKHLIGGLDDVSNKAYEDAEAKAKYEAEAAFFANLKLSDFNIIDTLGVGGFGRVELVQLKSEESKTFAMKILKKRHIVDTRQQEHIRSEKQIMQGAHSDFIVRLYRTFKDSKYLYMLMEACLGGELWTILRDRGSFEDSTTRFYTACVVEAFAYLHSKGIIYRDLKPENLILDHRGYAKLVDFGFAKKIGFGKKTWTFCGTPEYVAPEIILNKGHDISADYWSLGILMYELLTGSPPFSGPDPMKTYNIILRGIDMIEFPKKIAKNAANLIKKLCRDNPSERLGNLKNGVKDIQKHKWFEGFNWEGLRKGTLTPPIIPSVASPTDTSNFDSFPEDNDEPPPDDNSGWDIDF
PIM2 (human), sequence (Q9P1W9 whole entry, looked up): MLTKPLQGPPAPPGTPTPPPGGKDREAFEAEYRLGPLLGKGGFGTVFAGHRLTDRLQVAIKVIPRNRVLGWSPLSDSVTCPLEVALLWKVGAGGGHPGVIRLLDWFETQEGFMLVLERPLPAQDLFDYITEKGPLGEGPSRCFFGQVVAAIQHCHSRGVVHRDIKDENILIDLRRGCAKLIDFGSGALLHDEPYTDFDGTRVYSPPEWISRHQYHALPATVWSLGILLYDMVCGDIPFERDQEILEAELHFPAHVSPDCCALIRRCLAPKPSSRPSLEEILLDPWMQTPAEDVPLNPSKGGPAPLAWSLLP
CDK9 CCNT1 (human), sequence (O60563 whole entry, looked up): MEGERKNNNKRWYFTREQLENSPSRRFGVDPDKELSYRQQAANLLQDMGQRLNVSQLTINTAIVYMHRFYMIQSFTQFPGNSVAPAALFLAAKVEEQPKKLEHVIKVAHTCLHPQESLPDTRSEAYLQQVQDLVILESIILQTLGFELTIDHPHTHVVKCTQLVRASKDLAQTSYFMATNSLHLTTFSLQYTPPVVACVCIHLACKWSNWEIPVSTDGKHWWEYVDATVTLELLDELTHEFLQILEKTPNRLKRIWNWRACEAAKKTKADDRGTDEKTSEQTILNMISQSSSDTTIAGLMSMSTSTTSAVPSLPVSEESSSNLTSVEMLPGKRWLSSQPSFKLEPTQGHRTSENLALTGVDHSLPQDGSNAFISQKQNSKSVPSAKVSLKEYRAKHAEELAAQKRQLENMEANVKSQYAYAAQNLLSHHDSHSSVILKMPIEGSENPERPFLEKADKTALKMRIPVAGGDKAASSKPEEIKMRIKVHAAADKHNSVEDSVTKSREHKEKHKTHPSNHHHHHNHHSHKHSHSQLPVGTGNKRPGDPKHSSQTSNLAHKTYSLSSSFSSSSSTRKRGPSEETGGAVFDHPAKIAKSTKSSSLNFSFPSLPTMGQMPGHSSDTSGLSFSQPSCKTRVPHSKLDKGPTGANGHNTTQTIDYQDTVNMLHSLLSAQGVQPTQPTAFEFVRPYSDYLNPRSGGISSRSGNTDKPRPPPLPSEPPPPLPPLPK
CDK9 CCNT1 (human), sequence (P50750 whole entry, looked up): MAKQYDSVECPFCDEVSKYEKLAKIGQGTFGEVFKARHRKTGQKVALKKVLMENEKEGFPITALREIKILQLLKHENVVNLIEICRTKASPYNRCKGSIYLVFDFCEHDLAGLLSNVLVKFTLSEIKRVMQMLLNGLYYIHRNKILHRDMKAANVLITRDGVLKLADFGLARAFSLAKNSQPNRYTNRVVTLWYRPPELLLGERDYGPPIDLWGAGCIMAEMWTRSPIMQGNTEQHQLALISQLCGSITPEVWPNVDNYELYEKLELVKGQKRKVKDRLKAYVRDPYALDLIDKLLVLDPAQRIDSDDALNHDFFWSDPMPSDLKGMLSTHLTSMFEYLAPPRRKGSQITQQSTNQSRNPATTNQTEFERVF
LIMK1 (human), sequence (P53667 whole entry, looked up): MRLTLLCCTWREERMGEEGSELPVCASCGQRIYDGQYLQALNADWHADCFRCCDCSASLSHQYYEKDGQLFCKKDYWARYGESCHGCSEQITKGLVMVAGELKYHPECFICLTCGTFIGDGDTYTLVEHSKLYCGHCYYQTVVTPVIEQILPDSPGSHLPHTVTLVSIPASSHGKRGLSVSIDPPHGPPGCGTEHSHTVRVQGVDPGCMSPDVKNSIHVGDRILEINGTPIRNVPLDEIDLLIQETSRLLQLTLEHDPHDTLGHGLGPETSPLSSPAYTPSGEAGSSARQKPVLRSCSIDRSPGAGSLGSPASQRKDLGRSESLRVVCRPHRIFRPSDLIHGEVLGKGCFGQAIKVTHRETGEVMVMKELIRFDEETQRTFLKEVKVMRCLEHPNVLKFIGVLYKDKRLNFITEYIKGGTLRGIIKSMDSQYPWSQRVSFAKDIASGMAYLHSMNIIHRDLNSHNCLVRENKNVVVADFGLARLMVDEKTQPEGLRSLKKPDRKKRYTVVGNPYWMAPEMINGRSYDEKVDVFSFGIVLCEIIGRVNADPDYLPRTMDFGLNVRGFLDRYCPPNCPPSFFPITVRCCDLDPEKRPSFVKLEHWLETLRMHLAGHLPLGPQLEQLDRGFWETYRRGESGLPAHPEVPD
CAMK1D (human), sequence (Q8IU85 whole entry, looked up): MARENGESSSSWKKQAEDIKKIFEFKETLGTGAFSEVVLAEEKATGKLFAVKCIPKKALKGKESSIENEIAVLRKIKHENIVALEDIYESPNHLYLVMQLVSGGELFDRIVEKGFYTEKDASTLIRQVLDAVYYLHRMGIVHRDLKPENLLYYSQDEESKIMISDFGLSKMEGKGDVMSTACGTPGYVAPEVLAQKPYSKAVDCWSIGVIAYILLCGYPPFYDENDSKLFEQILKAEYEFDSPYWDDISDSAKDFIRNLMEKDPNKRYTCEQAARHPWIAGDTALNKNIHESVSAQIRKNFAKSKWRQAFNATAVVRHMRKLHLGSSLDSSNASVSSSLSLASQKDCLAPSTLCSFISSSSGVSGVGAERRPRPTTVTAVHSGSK
MAP3K3 (human), sequence (Q99759 whole entry, looked up): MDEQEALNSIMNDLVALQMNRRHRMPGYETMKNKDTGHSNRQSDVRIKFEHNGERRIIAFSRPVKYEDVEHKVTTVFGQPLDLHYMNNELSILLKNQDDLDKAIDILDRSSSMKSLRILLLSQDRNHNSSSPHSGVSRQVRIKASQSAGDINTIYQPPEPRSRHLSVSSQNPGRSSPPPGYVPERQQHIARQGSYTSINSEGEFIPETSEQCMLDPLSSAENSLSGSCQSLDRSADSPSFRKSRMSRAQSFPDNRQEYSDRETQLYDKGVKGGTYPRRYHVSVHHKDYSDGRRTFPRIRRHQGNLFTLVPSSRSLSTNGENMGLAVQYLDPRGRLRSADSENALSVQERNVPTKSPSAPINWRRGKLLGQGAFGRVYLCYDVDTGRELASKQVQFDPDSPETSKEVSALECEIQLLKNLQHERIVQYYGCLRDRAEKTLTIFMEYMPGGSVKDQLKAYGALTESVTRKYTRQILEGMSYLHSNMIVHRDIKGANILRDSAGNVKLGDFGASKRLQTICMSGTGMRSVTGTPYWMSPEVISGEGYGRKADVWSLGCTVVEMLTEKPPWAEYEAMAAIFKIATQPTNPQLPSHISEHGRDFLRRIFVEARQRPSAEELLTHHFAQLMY
BLK (human), sequence (P51451 whole entry, looked up): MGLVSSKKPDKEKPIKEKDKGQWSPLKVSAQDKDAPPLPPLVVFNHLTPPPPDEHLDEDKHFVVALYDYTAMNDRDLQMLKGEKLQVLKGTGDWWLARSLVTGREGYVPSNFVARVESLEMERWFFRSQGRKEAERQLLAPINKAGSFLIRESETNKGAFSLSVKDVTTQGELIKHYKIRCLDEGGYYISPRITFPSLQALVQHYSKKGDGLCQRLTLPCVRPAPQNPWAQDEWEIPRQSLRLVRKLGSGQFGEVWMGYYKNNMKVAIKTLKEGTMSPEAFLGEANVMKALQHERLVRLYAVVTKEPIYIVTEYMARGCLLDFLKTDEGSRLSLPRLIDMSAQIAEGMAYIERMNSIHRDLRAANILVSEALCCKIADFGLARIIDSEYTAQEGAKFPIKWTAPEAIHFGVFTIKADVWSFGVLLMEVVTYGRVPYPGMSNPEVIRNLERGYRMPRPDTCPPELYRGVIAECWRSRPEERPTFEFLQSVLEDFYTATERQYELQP

`O=C1NC(=O)c2c1c1c3ccccc3[nH]c1n1cncc21` showed a residual activity [1] of 85.6%, a residual activity [2] of 91.7% and a residual activity [3] of 73.9%. It also gave a residual activity [4] of 22.5%, a residual activity [5] of 83.3% and a residual activity [6] of 91.9%. It also gave a residual activity [7] of 94.8%, a residual activity [8] of 86% and a residual activity [9] of 87.1%. It also gave a residual activity [10] of 67%, a residual activity [11] of 82.9% and a residual activity [12] of 84%. The residual activity [13] was 48.2%, the residual activity [14] was 51.6% and the residual activity [15] was 101%. It also gave a residual activity [16] of 85.8%, a residual activity [17] of 105% and a residual activity [18] of 85%. The residual activity [19] was 96.8%, the residual activity [20] was 94.4% and the residual activity [21] was 140%. The residual activity [22] was 87.1%, the residual activity [23] was 74.7% and the residual activity [24] was 94.8% and 96.2%. It also gave a residual activity [25] of 86.9%, a residual activity [26] of 34.7% and a residual activity [27] of 54.4%. The residual activity [28] was 34.4%, the residual activity [29] was 47.7% and the residual activity [30] was 85.9% and 93.8%. For the same molecule, the residual activity [31] was 67.5%, the residual activity [32] was 93.2% and the residual activity [33] was 77%. For the same molecule, the residual activity [34] was 70.6%, the residual activity [35] was 74.7% and the residual activity [36] was 75.3%. It also gave a residual activity [37] of 104%, a residual activity [38] of 135% and a residual activity [39] of 95.8%. The residual activity [40] was 95.5%, the residual activity [41] was 86.6% and the residual activity [42] was 79.9%.
`COc1cc2ncnc(Nc3ccc(Oc4ccccc4)cc3)c2cc1OC` was tested, and the residual activity [1] was 81.8%, the residual activity [2] was 98.2% and the residual activity [3] was 9.95%. For the same molecule, the residual activity [4] was 98.7%, the residual activity [5] was 105% and the residual activity [6] was 99.7%. It also gave a residual activity [7] of 106%, a residual activity [8] of 113% and a residual activity [9] of 98.4%. For the same molecule, the residual activity [10] was 115%, the residual activity [11] was 86.7% and the residual activity [12] was 100%. The residual activity [13] was 101%, the residual activity [14] was 98.2% and the residual activity [15] was 106%. For the same molecule, the residual activity [16] was 103%, the residual activity [17] was 85.5% and the residual activity [18] was 87.1%. The residual activity [19] was 72.2%, the residual activity [20] was 97.4% and the residual activity [21] was 93.1%. For the same molecule, the residual activity [22] was 4.72%, the residual activity [23] was 89% and the residual activity [24] was 21.6% and 42.6%. It also gave a residual activity [25] of 94.5%, a residual activity [26] of 95.3% and a residual activity [27] of 89.8%. The residual activity [28] was 107%, the residual activity [29] was 95.8% and the residual activity [30] was 92.5% and 93.6%. For the same molecule, the residual activity [31] was 55.5%, the residual activity [32] was 99.3% and the residual activity [33] was 95.3%. It also gave a residual activity [34] of 108%, a residual activity [35] of 97.4% and a residual activity [36] of 113%. The residual activity [37] was 102%, the residual activity [38] was 105% and the residual activity [39] was 137%. It also gave a residual activity [40] of 97.8%, a residual activity [41] of 88.1% and a residual activity [42] of 7.96%.
